This is an account of results in patent US20250114460A1, “NOVEL PLK1 DEGRADATION INDUCING COMPOUND” (UPPTHERA, INC., priority 2021, published 2025).

For the assay, the target named is T1, PLK1 (Homo sapiens, UniProt P53350).
T1 construct: endogenous in cells; host or cells: HeLa LgBit (Plk1-HiBit KI): HeLa stably expressing LgBit, with a CRISPR/Cas9 knock-in of HiBit at the endogenous PLK1 locus
T1 sequence (P53350 whole entry): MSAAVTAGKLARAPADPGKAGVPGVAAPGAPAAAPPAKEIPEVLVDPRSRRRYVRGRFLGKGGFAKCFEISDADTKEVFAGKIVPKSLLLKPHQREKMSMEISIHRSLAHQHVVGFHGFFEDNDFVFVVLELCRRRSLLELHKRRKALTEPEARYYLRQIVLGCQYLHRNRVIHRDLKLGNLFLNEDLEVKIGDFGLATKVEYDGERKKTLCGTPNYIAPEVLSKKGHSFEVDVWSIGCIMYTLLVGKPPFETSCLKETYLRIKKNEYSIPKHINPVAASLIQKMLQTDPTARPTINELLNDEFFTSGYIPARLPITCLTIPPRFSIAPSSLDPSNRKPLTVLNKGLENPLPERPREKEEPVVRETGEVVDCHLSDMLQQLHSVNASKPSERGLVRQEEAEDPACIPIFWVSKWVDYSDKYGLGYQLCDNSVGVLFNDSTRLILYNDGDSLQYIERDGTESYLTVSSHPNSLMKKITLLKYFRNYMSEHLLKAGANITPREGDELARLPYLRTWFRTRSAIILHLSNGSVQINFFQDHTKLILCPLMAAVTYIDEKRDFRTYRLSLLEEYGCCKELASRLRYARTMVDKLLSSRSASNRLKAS
Kind of assay: Luciferase assay for PLK1 in HeLa LgBit (Plk1-HiBit KI) cell line. Format: cell-based. Conditions: 300 nM compound, luminescence after 9 hours. On the procedure:
2. Luciferase Assay for PLK1
(1) Preparation and Culture of HeLa LgBit (Plk1-HiBit KI) Cell Line
A HeLa cell line in which the LgBit vector was transfected and expressed stably was prepared. Then, after constructing gRNA and donor to express the HiBit amino acid sequence behind the C-terminal of the Plk1 gene, which was inherent in the cell, it was inserted into the cell together with a vector capable of expressing CRISPR/Cas9. Only the cells in which the insertion was completed and knock-in had progressed were selected, sub-cultured and used.
(2) Treatment of Compounds of the Present Invention and Method of Luciferase Assay
In the case of HeLa LgBit (Plk1-HiBit KI), the compounds were treated after being released after thymidine block, and the process was as follows. Thymidine (Sigma-Aldrich Cat. No. T9250-5G) was completely dissolved in DW and used in the experiment. For thymidine block, the products were treated with 2 mM of thymidine and then incubated for 24 hours. For release and chemical treatment, the medium was suctioned and washed with 1×PBS. TrypLE™ was added and incubated in 37° C. CO2 incubator for 5 min. Cells neutralized by adding complete media were counted through a counter. For each well of a 96-well culture plate (SPL), 3.3×10^4 cells and a total medium volume of 150 μL were seeded and incubated in a CO2 incubator.
Each cell line was incubated in a CO2 incubator for 18 hours, and Endurazine was added to each well to make up 4% of the total volume. After adding the compound of the present invention in a 96-well white plate (SPL) to a concentration of 300 nM, the wavelength of the plate reader (BMG Labtech, CLARIOstar Plus) was set to […], and then the luminescence was tracked in real time.
In Table 2, Activity represents the ratio of the luminescense value of each Exemplary Compound treatment group to DMSO treatment group (+++: <0.3, ++<0.6, +<0.7).
Consider `COc1cc(C(=O)NC2CCN(C(=O)CCN3CCN(c4ccc5c(c4)CN(C4CCC(=O)NC4=O)C5=O)CC3)CC2)c(F)cc1Nc1ncc2c(n1)N(C1CCCC1)CC(F)(F)C(=O)N2C` (stereo not shown) [Compound 61, 4-((9-cyclopentyl-7,7-difluoro-5-methyl-6-oxo-6,7,8,9-tetrahydro-5H-pyrimido[4,5-b][1,4]diazepin-2-yl)amino)-N-(1-(3-(4-(2-(2,6-dioxopiperidin-3-yl)-1-oxoisoindolin-5-yl)piperazin-1-yl)propanoyl)piperidin-4-yl)-2-fluoro-5-methoxybenzamide], for which the “Activity: ratio of the luminescense value of each Exemplary Compound treatment group to DMSO treatment group” value (shortened to “Activity: ratio”) is on record as “++ (++<0.6)”.

As to `COc1cc(C(=O)N[C@H]2CC[C@H](OC3CCN(c4ccc5c(c4)C(=O)N(C4CCC(=O)NC4=O)C5=O)CC3)CC2)c(F)cc1Nc1ncc2c(n1)N(C1CCCC1)CC(F)(F)C(=O)N2C` (stereo partly shown) [Compound 116, 4-((9-cyclopentyl-7,7-difluoro-5-methyl-6-oxo-6,7,8,9-tetrahydro-5H-pyrimido[4,5-b][1,4]diazepin-2-yl)amino)-N-((1r,4r)-4-((1-(2-(2,6-dioxopiperidin-3-yl)-1,3-dioxoisoindolin-5-yl)piperidin-4-yl)oxy)cyclohexyl)-2-fluoro-5-methoxybenzamide], the “Activity: ratio” value was “++ (++<0.6)”.

Turning to `COc1cc(C(=O)NC2CCN(C(=O)CCCN3CCN(c4cccc5c4C(=O)N(C4CCC(=O)NC4=O)C5=O)CC3)CC2)ccc1Nc1ncc2c(n1)N(C1CCCC1)CC(F)(F)C(=O)N2C` (stereo not shown) [Compound 64, 4-((9-cyclopentyl-7,7-difluoro-5-methyl-6-oxo-6,7,8,9-tetrahydro-5H-pyrimido[4,5-b][1,4]diazepin-2-yl)amino)-N-(1-(4-(4-(2-(2,6-dioxopiperidin-3-yl)-1,3-dioxoisoindolin-4-yl)piperazin-1-yl)butanoyl)piperidin-4-yl)-3-methoxybenzamide], the “Activity: ratio” value is recorded as “++ (++<0.6)”.

For `CN1C(=O)C(F)(F)CN(C2CCCC2)c2nc(Nc3ccc(C(=O)NC4CCN(C(=O)CCN5CCN(c6cccc7c6C(=O)N(C6CCC(=O)NC6=O)C7=O)CC5)CC4)cc3OCCO)ncc21` (stereo not shown) [Compound 73, 4-((9-cyclopentyl-7,7-difluoro-5-methyl-6-oxo-6,7,8,9-tetrahydro-5H-pyrimido[4,5-b][1,4]diazepin-2-yl)amino)-N-(1-(3-(4-(2-(2,6-dioxopiperidin-3-yl)-1,3-dioxoisoindolin-4-yl)piperazin-1-yl)propanoyl)piperidin-4-yl)-3-(2-hydroxyethoxy)benzamide], the “Activity: ratio” value was “++ (++<0.6)”.

Consider `COc1cc(C(=O)NC2CCN(C(=O)COC3CN(c4cccc5c4C(=O)N(C4CCC(=O)NC4=O)C5=O)C3)CC2)ccc1Nc1ncc2c(n1)N(C1CCCC1)CC(F)(F)C(=O)N2C` (stereo not shown) [Compound 80, 4-((9-cyclopentyl-7,7-difluoro-5-methyl-6-oxo-6,7,8,9-tetrahydro-5H-pyrimido[4,5-b][1,4]diazepin-2-yl)amino)-N-(1-(2-((1-(2-(2,6-dioxopiperidin-3-yl)-1,3-dioxoisoindolin-4-yl)azetidin-3-yl)oxy)acetyl)piperidin-4-yl)-3-methoxybenzamide], for which the “Activity: ratio” value is listed as “++ (++<0.6)”.

For the molecule `COc1cc(C(=O)N[C@H]2CC[C@H](N3CCN(CCNc4cccc5c4C(=O)N(C4CCC(=O)NC4=O)C5=O)CC3)CC2)c(F)cc1Nc1ncc2c(n1)N(C1CCCC1)CC(F)(F)C(=O)N2C` (stereo partly shown) [Compound 196, 4-((9-cyclopentyl-7,7-difluoro-5-methyl-6-oxo-6,7,8,9-tetrahydro-5H-pyrimido[4,5-b][1,4]diazepin-2-yl)amino)-N-((1r,4r)-4-(4-(2-((2-(2,6-dioxopiperidin-3-yl)-1,3-dioxoisoindolin-4-yl)amino)ethyl)piperazin-1-yl)cyclohexyl)-2-fluoro-5-methoxybenzamide], the “Activity: ratio” value is “++ (++<0.6)”.

Take `COc1cc(C(=O)NC2CC(N(C)CC3CCN(c4cccc5c4C(=O)N(C4CCC(=O)NC4=O)C5=O)CC3)C2)ccc1Nc1ncc2c(n1)N(C1CCCC1)CC(F)(F)C(=O)N2C` (stereo not shown) [Compound 105, 4-((9-cyclopentyl-7,7-difluoro-5-methyl-6-oxo-6,7,8,9-tetrahydro-5H-pyrimido[4,5-b][1,4]diazepin-2-yl)amino)-N-(3-(((1-(2-(2,6-dioxopiperidin-3-yl)-1,3-dioxoisoindolin-4-yl)piperidin-4-yl)methyl)(methyl)amino)cyclobutyl)-3-methoxybenzamide]: the “Activity: ratio” value is “++ (++<0.6)”.

In the case of `COc1cc(C(=O)N2CCN(CCCCNc3ccc4c(c3)C(=O)N(C3CCC(=O)NC3=O)C4=O)CC2)c(F)cc1Nc1ncc2c(n1)N(C1CCCC1)CC(F)(F)C(=O)N2C` (stereo not shown) [Compound 187, 5-((4-(4-(4-((9-cyclopentyl-7,7-difluoro-5-methyl-6-oxo-6,7,8,9-tetrahydro-5H-pyrimido[4,5-b][1,4]diazepin-2-yl)amino)-2-fluoro-5-methoxybenzoyl)piperazin-1-yl)butyl)amino)-2-(2,6-dioxopiperidin-3-yl)isoindoline-1,3-dione], the “Activity: ratio” value is “+ (+<0.7)”.

Consider `COc1cc(C(=O)NCCOCCOCCOCCOCCOCCNc2cccc3c2C(=O)N(C2CCC(=O)NC2=O)C3=O)c(N2CCN(C)CC2)cc1Nc1ncc2c(n1)N(C1CCCC1)CC(F)(F)C(=O)N2C` (stereo not shown) [Compound 225, 4-((9-cyclopentyl-7,7-difluoro-5-methyl-6-oxo-6,7,8,9-tetrahydro-5H-pyrimido[4,5-b][1,4]diazepin-2-yl)amino)-N-(17-((2-(2,6-dioxopiperidin-3-yl)-1,3-dioxoisoindolin-4-yl)amino)-3,6,9,12,15-pentaoxaheptadecyl)-5-methoxy-2-(4-methylpiperazin-1-yl)benzamide], for which the “Activity: ratio” value is on record as “++ (++<0.6)”.

In the case of `COc1cc(C(=O)NC2CCN(C(=O)CCC#Cc3cccc4c3C(=O)N(C3CCC(=O)NC3=O)C4=O)CC2)ccc1Nc1ncc2c(n1)N(C1CCCC1)CC(F)(F)C(=O)N2C` (stereo not shown) [Compound 179, 4-((9-cyclopentyl-7,7-difluoro-5-methyl-6-oxo-6,7,8,9-tetrahydro-5H-pyrimido[4,5-b][1,4]diazepin-2-yl)amino)-N-(1-(5-(2-(2,6-dioxopiperidin-3-yl)-1,3-dioxoisoindolin-4-yl)pent-4-ynoyl)piperidin-4-yl)-3-methoxybenzamide], the “Activity: ratio” value is on record as “++ (++<0.6)”.

Consider `COc1cc(C(=O)NC2CCN(C(=O)[C@@H]3C[C@H](Nc4cccc5c4C(=O)N(C4CCC(=O)NC4=O)C5=O)CN3)CC2)c(F)cc1Nc1ncc2c(n1)N(C1CCCC1)CC(F)(F)C(=O)N2C` (stereo partly drawn) [Compound 206, 4-((9-cyclopentyl-7,7-difluoro-5-methyl-6-oxo-6,7,8,9-tetrahydro-5H-pyrimido[4,5-b][1,4]diazepin-2-yl)amino)-N-(1-((2S,4S)-4-((2-(2,6-dioxopiperidin-3-yl)-1,3-dioxoisoindolin-4-yl)amino)pyrrolidine-2-carbonyl)piperidin-4-yl)-2-fluoro-5-methoxybenzamide], for which the “Activity: ratio” value is “+ (+<0.7)”.

Turning to `COc1cc(C(=O)N[C@H]2CCN(C(=O)CCN3CCN(c4ccc5c(c4)CN(C4CCC(=O)NC4=O)C5=O)CC3)C2)c(F)cc1Nc1ncc2c(n1)N(C1CCCC1)CC(F)(F)C(=O)N2C` (stereo partly drawn) [Compound 84, 4-((9-cyclopentyl-7,7-difluoro-5-methyl-6-oxo-6,7,8,9-tetrahydro-5H-pyrimido[4,5-b][1,4]diazepin-2-yl)amino)-N-((3S)-1-(3-(4-(2-(2,6-dioxopiperidin-3-yl)-1-oxoisoindolin-5-yl)piperazin-1-yl)propanoyl)pyrrolidin-3-yl)-2-fluoro-5-methoxybenzamide], the “Activity: ratio” value is given as “++ (++<0.6)”.

As to `COc1cc(C(=O)N2CCN(CCCCN3CCN(c4cccc5c4C(=O)N(C4CCC(=O)NC4=O)C5=O)CC3)CC2)ccc1Nc1ncc2c(n1)N(C1CCCC1)CC(F)(F)C(=O)N2C` (stereo not shown) [Compound 88, 4-(4-(4-(4-(4-((9-cyclopentyl-7,7-difluoro-5-methyl-6-oxo-6,7,8,9-tetrahydro-5H-pyrimido[4,5-b][1,4]diazepin-2-yl)amino)-3-methoxybenzoyl)piperazin-1-yl)butyl)piperazin-1-yl)-2-(2,6-dioxopiperidin-3-yl)isoindoline-1,3-dione], the “Activity: ratio” value is recorded as “++ (++<0.6)”.
